From ChEMBL document CHEMBL1687697 (ACS Med Chem Lett, 2010)
Active and inactive are the calls of the source. No cut-off for these calls is given here.

What was measured:
[1] = target: Signal transducer and activator of transcription 3 (Homo sapiens) (UniProt P40763); experiment: Inhibition of STAT3 in human HeLa cells at 5 uM after 24 hrs by luciferase reporter gene assay; type: cell-based
HeLa = experiment: Antiproliferative activity against human HeLa cells after 72 hrs by MTT assay; type: functional, cell-based
[2] = target: Signal transducer and activator of transcription 3 (Homo sapiens) (UniProt P40763); experiment: Inhibition of STAT3 nuclear translocation in EGF stimulated human DU145 cells at 1 uM administered before 100 ng/ml EGF stimulation measured after 2 hrs by confocal laser microscopy; type: cell-based; conditions: DU-145
Angiopoietin-1 receptor = Angiopoietin-1 receptor (Homo sapiens, UniProt Q02763); experiment: Inhibition of TIE2 after 60 mins by radiometric assay
Sequence of Angiopoietin-1 receptor (Q02763 whole entry): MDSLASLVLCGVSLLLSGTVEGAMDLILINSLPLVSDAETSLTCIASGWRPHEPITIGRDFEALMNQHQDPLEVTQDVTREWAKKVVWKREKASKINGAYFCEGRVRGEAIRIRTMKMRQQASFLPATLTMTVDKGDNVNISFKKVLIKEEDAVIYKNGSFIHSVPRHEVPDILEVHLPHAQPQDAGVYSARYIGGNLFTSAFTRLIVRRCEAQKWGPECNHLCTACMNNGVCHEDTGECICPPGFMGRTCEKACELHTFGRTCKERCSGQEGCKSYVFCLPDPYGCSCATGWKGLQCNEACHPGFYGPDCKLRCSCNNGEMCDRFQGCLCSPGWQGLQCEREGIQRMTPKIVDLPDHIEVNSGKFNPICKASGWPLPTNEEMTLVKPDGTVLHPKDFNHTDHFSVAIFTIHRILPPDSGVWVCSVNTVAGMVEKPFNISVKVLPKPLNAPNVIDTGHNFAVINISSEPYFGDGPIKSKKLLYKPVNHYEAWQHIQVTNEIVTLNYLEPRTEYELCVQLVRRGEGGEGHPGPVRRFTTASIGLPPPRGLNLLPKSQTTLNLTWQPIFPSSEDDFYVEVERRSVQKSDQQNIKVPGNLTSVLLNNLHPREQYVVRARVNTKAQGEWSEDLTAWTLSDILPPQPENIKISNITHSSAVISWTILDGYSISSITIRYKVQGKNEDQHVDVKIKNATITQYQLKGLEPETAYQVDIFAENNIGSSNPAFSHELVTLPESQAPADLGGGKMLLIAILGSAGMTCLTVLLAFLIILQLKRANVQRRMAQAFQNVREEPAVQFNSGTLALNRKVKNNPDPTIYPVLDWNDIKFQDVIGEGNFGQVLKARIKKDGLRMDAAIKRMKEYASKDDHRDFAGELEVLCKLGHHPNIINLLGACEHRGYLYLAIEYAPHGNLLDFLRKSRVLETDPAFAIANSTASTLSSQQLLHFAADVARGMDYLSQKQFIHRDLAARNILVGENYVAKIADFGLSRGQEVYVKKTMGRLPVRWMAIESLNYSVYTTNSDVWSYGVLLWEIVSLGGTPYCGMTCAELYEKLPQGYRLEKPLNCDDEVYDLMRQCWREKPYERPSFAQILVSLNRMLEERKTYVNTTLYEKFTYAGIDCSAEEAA

DU-145 [3] = experiment: Cell cycle arrest in human DU145 cells assessed as accumulation in G0/G1 phase at 1 uM after 24 hrs by FACS flow cytometry; type: functional
[4] = target: Protein kinase C alpha type (Homo sapiens, UniProt P17252); experiment: Inhibition of PKC-alpha after 60 mins by radiometric assay
[5] = target: Mitogen-activated protein kinase 1 (Homo sapiens, UniProt P28482); experiment: Inhibition of Erk2 after 60 mins by radiometric assay
Sequence of Mitogen-activated protein kinase 1 (P28482 whole entry): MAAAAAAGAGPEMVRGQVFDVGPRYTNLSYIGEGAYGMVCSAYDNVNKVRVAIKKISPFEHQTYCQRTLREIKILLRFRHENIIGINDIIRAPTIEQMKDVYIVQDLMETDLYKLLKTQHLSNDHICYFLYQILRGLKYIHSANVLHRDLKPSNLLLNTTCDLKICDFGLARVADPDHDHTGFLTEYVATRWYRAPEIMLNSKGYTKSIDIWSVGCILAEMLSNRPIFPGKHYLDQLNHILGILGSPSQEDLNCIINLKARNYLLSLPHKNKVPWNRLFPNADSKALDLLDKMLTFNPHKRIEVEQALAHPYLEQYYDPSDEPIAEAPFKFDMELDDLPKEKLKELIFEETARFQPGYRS

[6] = target: Serine/threonine-protein kinase B-raf (Homo sapiens, UniProt P15056, V600E); experiment: Inhibition of B-Raf V600E mutant after 60 mins by radiometric assay
Sequence of Serine/threonine-protein kinase B-raf (P15056 2-766 V600E limits assumed): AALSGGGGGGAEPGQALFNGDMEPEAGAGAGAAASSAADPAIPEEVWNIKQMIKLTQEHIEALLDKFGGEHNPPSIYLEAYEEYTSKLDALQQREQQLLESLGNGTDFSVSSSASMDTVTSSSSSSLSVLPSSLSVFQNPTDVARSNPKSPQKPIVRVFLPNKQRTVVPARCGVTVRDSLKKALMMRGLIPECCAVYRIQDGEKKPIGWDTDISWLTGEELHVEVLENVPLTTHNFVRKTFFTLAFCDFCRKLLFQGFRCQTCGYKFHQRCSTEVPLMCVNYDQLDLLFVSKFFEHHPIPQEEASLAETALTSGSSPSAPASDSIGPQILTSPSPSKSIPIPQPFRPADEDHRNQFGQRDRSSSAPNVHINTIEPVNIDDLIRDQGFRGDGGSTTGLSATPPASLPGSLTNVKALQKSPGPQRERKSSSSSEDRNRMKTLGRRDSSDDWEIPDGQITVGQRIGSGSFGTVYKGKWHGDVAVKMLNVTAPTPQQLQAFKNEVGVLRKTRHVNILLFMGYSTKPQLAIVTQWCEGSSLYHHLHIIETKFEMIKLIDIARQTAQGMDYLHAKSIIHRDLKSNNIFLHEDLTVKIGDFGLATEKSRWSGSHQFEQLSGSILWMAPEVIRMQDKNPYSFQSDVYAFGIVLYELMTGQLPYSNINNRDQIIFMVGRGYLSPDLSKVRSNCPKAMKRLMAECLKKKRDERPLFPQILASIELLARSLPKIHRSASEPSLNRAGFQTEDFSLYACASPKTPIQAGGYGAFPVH

HT-29 = experiment: Antiproliferative activity against human HT-29 cells after 72 hrs by MTT assay; type: functional, cell-based; conditions: HT-29, 72 h
DU-145 [7] = experiment: Induction of apoptosis in human DU145 cells assessed as viable cells at 5 uM after 72 hrs by AnnexinV-propidium iodide based FACS flow cytometry; type: functional; conditions: DU-145, 72 h, read-out: Activity
DU-145 [8] = experiment: Decrease in Bcl-Xl protein level in human DU145 cells at 0.1 to 2 uM after 2 hrs by Western blot analysis; type: functional, cell-based
DU-145 [9] = experiment: Cell cycle arrest in human DU145 cells assessed as accumulation in S phase at 0.5 uM after 24 hrs by FACS flow cytometry; type: functional
DU-145 [10] = experiment: Effect on JAK1 protein level in human DU145 cells at 0.1 to 2 uM after 24 hrs by Western blot analysis; type: functional, cell-based
DU-145 [11] = experiment: Cell cycle arrest in human DU145 cells assessed as accumulation in S phase at 1 uM after 24 hrs by FACS flow cytometry; type: functional
[12] = target: Signal transducer and activator of transcription 3 (Homo sapiens) (UniProt P40763); experiment: Inhibition of STAT3 phosphorylation at Tyr705 in human DU145 cells at 2 uM within 2 hrs by Western blot analysis; type: cell-based; conditions: DU-145
Aurora kinase A = Aurora kinase A (Homo sapiens, UniProt O14965); experiment: Inhibition of Aurora-A after 60 mins by radiometric assay
Sequence of Aurora kinase A (O14965 whole entry): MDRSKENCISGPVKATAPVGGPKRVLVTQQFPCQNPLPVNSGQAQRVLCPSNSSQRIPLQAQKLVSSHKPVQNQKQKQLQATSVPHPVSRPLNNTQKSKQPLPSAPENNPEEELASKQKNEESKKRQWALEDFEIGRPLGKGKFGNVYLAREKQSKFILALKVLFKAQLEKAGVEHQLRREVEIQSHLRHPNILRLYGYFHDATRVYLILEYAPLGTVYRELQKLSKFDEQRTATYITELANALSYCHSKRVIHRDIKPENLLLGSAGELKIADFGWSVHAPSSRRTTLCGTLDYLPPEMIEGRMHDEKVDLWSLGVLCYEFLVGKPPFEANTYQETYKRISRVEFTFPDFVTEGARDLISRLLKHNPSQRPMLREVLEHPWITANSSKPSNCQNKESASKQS

[13] = Inhibition of MEK after 60 mins by radiometric assay
DU-145 [14] = experiment: Cell cycle arrest in human DU145 cells assessed as accumulation in S phase at 0.2 uM after 24 hrs by FACS flow cytometry; type: functional
DU-145 [15] = experiment: Effect on JAK2 protein level in human DU145 cells at 0.1 to 2 uM after 2 hrs by Western blot analysis; type: functional, cell-based
DU-145 [16] = experiment: Induction of apoptosis in human DU145 cells assessed as necrotic cells at 1 uM after 72 hrs by AnnexinV-propidium iodide based FACS flow cytometry; type: functional
DU-145 [17] = experiment: Effect on phosphorylated JAK1 protein level in human DU145 cells at 0.1 to 2 uM after 24 hrs by Western blot analysis; type: functional, cell-based
[18] = target: Mitogen-activated protein kinase 8 (Homo sapiens, UniProt P45983); experiment: Inhibition of JNK1 after 60 mins by radiometric assay
DU-145 [19] = experiment: Effect on Tyr527 phosphorylated-Src protein level in human DU145 cells at 0.1 to 2 uM after 24 hrs by Western blot analysis; type: functional, cell-based
DU-145 [20] = experiment: Decrease in STAT3 protein level in human DU145 cells after 24 hrs by Western blot analysis; type: functional, cell-based
DU-145 [21] = experiment: Decrease in c-Myc protein level in human DU145 cells at 0.1 to 2 uM after 2 hrs by Western blot analysis; type: functional, cell-based
DU-145 [22] = experiment: Effect on phosphorylated-JAK2 protein level in human DU145 cells at 0.1 to 2 uM after 2 hrs by Western blot analysis; type: functional, cell-based
[23] = target: 3-phosphoinositide-dependent protein kinase 1 (Homo sapiens, UniProt O15530); experiment: Inhibition of PDK1 after 60 mins by radiometric assay
Sequence of 3-phosphoinositide-dependent protein kinase 1 (O15530 whole entry): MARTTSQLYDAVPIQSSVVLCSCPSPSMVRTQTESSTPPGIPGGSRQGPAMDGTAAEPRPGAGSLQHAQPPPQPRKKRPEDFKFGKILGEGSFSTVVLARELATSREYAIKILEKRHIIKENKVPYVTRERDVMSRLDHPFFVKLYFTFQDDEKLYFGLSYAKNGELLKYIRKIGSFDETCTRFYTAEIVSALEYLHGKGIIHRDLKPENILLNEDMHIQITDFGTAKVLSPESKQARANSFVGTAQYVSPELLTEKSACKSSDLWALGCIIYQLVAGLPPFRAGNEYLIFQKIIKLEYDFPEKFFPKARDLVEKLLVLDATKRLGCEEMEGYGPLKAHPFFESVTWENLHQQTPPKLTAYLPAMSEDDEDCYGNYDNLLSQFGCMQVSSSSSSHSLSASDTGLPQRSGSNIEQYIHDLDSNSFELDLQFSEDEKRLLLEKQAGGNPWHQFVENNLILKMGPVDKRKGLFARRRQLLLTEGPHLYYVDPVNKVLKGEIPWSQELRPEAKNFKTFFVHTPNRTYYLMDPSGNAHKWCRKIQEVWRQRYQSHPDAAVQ

DU-145 [24] = experiment: Cell cycle arrest in human DU145 cells assessed as accumulation in G2/M phase at 0.2 uM after 24 hrs by FACS flow cytometry; type: functional
[25] = Inhibition of Raf Y340D/Y341D mutant after 60 mins by radiometric assay
[26] = target: Receptor-type tyrosine-protein kinase FLT3 (Homo sapiens, UniProt P36888); experiment: Inhibition of Flt3 after 60 mins by radiometric assay
Sequence of Receptor-type tyrosine-protein kinase FLT3 (P36888 whole entry): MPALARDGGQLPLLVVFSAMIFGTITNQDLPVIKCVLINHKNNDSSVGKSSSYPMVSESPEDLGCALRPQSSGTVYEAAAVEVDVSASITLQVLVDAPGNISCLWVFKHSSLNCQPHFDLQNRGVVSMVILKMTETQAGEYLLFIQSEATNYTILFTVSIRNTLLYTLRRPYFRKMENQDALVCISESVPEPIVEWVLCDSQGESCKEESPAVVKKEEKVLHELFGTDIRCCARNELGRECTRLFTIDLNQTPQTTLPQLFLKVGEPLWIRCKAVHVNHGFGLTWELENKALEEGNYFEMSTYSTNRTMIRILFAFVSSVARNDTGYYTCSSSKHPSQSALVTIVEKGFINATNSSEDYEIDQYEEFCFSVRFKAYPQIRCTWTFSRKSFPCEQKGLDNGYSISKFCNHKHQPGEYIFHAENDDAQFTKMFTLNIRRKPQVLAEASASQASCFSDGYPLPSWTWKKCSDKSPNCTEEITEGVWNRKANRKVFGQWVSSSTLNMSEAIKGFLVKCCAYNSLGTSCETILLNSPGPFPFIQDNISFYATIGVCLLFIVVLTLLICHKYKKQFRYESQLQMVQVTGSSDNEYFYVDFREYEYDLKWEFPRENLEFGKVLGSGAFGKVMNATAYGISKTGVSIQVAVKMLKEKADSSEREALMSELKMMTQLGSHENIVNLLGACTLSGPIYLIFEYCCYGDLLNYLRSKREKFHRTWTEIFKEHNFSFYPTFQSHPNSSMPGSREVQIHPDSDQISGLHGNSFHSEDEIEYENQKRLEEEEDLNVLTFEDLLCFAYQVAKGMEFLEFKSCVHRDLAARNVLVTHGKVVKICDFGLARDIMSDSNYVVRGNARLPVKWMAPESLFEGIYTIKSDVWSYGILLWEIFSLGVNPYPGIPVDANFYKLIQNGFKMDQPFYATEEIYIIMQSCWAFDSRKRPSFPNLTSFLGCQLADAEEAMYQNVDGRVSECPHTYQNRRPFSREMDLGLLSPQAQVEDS

[27] = target: Signal transducer and activator of transcription 3 (Homo sapiens) (UniProt P40763); experiment: Inhibition of STAT3 phosphorylation Ser727 in human DU145 cells after 24 hrs by Western blot analysis; type: cell-based; conditions: DU-145
DU-145 [28] = experiment: Induction of apoptosis in human DU145 cells assessed as late apoptotic cells at 1 uM after 72 hrs by AnnexinV-propidium iodide based FACS flow cytometry; type: functional
DU-145 [29] = experiment: Cell cycle arrest in human DU145 cells assessed as accumulation in G0/G1 phase at 0.2 uM after 24 hrs by FACS flow cytometry; type: functional
DU-145 [30] = experiment: Downregulation of Mcl-1 protein in human DU145 cells at 0.1 to 2 uM after 2 hrs by Western blot analysis; type: functional, cell-based
DU-145 [31] = experiment: Induction of apoptosis in human DU145 cells assessed as viable cells at 1 uM after 72 hrs by AnnexinV-propidium iodide based FACS flow cytometry; type: functional; conditions: DU-145, 72 h, read-out: Activity
DU-145 [32] = experiment: Cell cycle arrest in human DU145 cells assessed as accumulation in G2/M phase at 1 uM after 24 hrs by FACS flow cytometry; type: functional
[33] = target: Signal transducer and activator of transcription 3 (Homo sapiens) (UniProt P40763); experiment: Inhibition of STAT3 interaction with DNA binding site in human DU145 cells at 05 to 10 uM after 2 hrs by EMSA; type: cell-based; conditions: DU-145

Sequence of Signal transducer and activator of transcription 3 (Homo sapiens) (P40763 whole entry): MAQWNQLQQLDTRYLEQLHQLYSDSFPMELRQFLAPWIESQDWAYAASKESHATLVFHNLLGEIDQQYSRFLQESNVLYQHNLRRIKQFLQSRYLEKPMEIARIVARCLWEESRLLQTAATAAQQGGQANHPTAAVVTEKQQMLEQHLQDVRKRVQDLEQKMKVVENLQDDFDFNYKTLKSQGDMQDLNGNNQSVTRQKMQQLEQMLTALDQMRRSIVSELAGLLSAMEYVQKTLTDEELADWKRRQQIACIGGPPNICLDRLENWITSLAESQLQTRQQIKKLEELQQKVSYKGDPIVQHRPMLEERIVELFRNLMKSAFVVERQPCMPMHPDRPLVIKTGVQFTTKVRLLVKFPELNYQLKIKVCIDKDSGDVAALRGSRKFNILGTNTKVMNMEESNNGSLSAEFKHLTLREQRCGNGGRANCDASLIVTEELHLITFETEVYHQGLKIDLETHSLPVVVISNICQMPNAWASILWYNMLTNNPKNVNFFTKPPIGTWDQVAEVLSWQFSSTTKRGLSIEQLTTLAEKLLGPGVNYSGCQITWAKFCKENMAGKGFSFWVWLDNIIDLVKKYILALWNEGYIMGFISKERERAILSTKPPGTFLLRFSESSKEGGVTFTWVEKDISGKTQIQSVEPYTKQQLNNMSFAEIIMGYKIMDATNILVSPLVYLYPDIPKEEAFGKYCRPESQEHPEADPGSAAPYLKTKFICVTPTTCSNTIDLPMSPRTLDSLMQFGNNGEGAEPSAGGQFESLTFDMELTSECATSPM

For `O=C(Nc1ccc([N+](=O)[O-])cc1Cl)c1cc(Cl)ccc1O` [NICLOSAMIDE], the inhibition [1] was “Active”, the IC50 (HeLa) was 1.4 µM and the inhibition [2] was “Active”. For the same compound, the IC50 (Angiopoietin-1 receptor) was 67.8 µM, the Activity (DU-145 [3]) was 75.35% and the IC50 [4] was > 100 µM. For the same compound, the IC50 [5] was > 100 µM, the IC50 [6] was > 100 µM and the IC50 (HT-29) was 7.2 µM. For the same compound, the viability at 5 µM (DU-145 [7]) was 61.9%, the Activity (DU-145 [8]) was “Active” and the Activity (DU-145 [9]) was 32.84%. The Activity (DU-145 [10]) was “inactive”, the Activity (DU-145 [11]) was 16.82% and the inhibition [12] was “Active”. For the same compound, the IC50 (Aurora kinase A) was 54.1 µM, the IC50 [13] was > 100 µM and the Activity (DU-145 [14]) was 38.4%. The Activity (DU-145 [15]) was “inactive”, the Activity (DU-145 [16]) was 2.63% and the Activity (DU-145 [17]) was “inactive”. The IC50 [18] was > 100 µM, the Activity (DU-145 [19]) was “inactive” and the Activity (DU-145 [20]) was “inactive”. For the same compound, the Activity (DU-145 [21]) was “Active”, the Activity (DU-145 [22]) was “inactive” and the IC50 [23] was 83.9 µM. For the same compound, the Activity (DU-145 [24]) was 13.11%, the IC50 [25] was > 100 µM and the IC50 [26] was > 100 µM. The inhibition [27] was “inactive”, the Activity (DU-145 [28]) was 8.16% and the Activity (DU-145 [29]) was 48.4%. For the same compound, the Activity (DU-145 [30]) was “Active”, the viability at 1 µM (DU-145 [31]) was 83.9% and the Activity (DU-145 [32]) was 7.83%. For the same compound, the inhibition [33] was “Active”.
